Laboratory results: US8507502B2, “Fused bicyclic and tricyclic pyrimidine compounds as tyrosine kinase inhibitors” (National Health Research Institutes, priority 2008, dated 2013)
pIC50: −log10 of the molar value. Read-outs that look alike come from different tables or passages of the source.

Assays:
GST-EGFR-KD^L858R/T790M = biological target: T1, GST-EGFR-KD^L858R/T790M (Homo sapiens, UniProt P00533, L858R/T790M); experiment: Double mutant EGFR kinase assay (Kinase-Glo); assay type: biochemical; settings: 1 μM ATP, read-out: IC50 (concentration at which activity of 50% of mutant EGFR is inhibited)
T1 construct: residues from 696 to 1022 and with L858R/T790M; made in house; host or cells: Sf9 insect cells (baculovirus)

HCC827 = experiment: In vivo anticancer activity, lung cancer xenograft mice (injected with HCC827); parameters: species or system nude mice; settings: for tumor size relative to that of the vehicle controls: days 1-5 and 8-12, 22nd day post treatment
Experimental: In vivo efficacy of the compounds of this invention was assessed using lung cancer xenograft mice (injected with HCC827), as described in Cancer Research 2004, 64, 4621-4628.
HCC827 cells were injected via s.c. in nude mice to form lung cancer xenograft mice. Mice bearing tumor with a size of ˜100 mm^3 were randomly assigned to two groups: a vehicle control group (10 mice), and a treatment group (21 mice). Of the treated mice, 21 received Compound 62 at a daily dosage of 5 mg/kg and 15 mg/kg via IV injection through the tail veins for 5 days/week for 2 consecutive weeks (days 1-5 and 8-12).

HCC827 cells = experiment: HCC827 cell viability, MTS assay; assay type: cell-based; settings: Homo sapiens, 96-h incubation, read-out: IC50 (concentration which causes 50% of the cell death)
GST-EGFR-KD^WT = biological target: T2, GST-EGFR-KD^WT (Homo sapiens, UniProt P00533); experiment: EGFR kinase assay (Kinase-Glo); assay type: biochemical; settings: 5 μM ATP, read-out: IC50 (concentration at which activity of 50% of EGFR is inhibited)
T2 construct: 50 ng GST-EGFR-KD^WT proteins; made in house
T2 sequence (P00533 712-979 limits assumed): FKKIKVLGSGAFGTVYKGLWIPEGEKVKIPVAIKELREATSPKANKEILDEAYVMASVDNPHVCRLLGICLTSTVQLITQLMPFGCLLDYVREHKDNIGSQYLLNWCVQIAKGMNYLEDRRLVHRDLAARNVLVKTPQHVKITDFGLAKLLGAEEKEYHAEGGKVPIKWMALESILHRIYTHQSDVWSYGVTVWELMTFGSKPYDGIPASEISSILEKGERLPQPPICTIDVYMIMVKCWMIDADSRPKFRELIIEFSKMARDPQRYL

T1 sequence (P00533 696-1022 T790M/L858R): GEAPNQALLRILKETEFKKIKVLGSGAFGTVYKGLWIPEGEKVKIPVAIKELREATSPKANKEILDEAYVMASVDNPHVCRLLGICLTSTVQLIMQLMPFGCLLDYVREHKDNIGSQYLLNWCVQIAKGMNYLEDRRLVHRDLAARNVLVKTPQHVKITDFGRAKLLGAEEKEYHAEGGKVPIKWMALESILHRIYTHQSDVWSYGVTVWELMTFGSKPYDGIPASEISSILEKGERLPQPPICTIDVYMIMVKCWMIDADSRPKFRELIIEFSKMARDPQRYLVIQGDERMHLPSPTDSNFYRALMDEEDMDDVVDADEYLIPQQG

SMILES | pIC50 (GST-EGFR-KD^L858R/T790M) | pIC50 (GST-EGFR-KD^WT) | tumor size relative to that of the vehicle controls (HCC827; 5 mg/kg daily IV) | tumor size relative to that of the vehicle controls (HCC827; 15 mg/kg daily IV) | tumor growth suppression (HCC827; 5 and 15 mg/kg IV, p<0.05) | pIC50 (HCC827 cells) | pIC50 (GST-EGFR-KD^WT; range given in mixed units)
C=CC(=O)N1CCc2c(sc3ncnc(N[C@H](CC)c4ccccc4)c23)C1 [Compound 106] | 5.60 to 6.30 | > 7.23 |  |  |  | 7.00 to 9.00 | 
C=CC(=O)N1CCc2c(sc3ncnc(N[C@H](COC)c4ccccc4)c23)C1 [Compound 185] | 6.30 to 8.00 | > 7.23 |  |  |  | 7.00 to 9.00 | 
CN(C)C/C=C/C(=O)N1CCc2c(sc3ncnc(Nc4ccc(F)c(Cl)c4)c23)C1 [Compound 187] | 6.30 to 8.00 | > 7.23 |  |  |  | 7.00 to 9.00 | 
C=CC(=O)N1CCc2c(sc3ncnc(N[C@H](CO)Cc4ccccc4)c23)C1 [Compound 193] | 5.60 to 6.30 | > 7.23 |  |  |  | 6.00 to 6.52 | 
C=CC(=O)N1CCc2c(sc3ncnc(N[C@H](COCc4ccccc4)c4ccccc4)c23)C1 [Compound 195] | 6.30 to 8.00 | > 7.23 |  |  |  | 7.00 to 9.00 | 
C=CC(=O)N1CCc2c(sc3ncnc(N[C@H](COCc4cccc(F)c4)c4ccccc4)c23)C1 [Compound 200] | 6.30 to 8.00 | > 7.23 |  |  |  | 7.00 to 9.00 | 
C=CC(=O)N1CCc2c(sc3ncnc(N[C@H](COCc4ccc(C(F)(F)F)cc4)c4ccccc4)c23)C1 [Compound 202] | 6.30 to 8.00 | > 7.23 |  |  |  | 6.52 to 7.00 | 
CN(C)C/C=C/C(=O)N1CCc2c(sc3ncnc(N[C@H](COCc4cccc(F)c4)c4ccccc4)c23)C1 [Compound 210] | 6.30 to 8.00 | > 7.23 |  |  |  | 7.00 to 9.00 | 
C[C@@H](Nc1ncnc2sc3c(c12)CCN(C(=O)/C=C/CNC1CC1)C3)c1ccccc1 [Compound 211] | 5.60 to 6.30 | > 7.23 |  |  |  | 7.00 to 9.00 | 
C[C@@H](Nc1ncnc2sc3c(c12)CCN(C(=O)/C=C/CN(CCO)CCO)C3)c1ccccc1 [Compound 215] | 5.60 to 6.30 | > 7.23 |  |  |  | 7.00 to 9.00 | 
C=CC(=O)N1CCc2c(sc3ncnc(N[C@H](COCc4cccc(OC)c4)c4ccccc4)c23)C1 [Compound 223] | 6.30 to 8.00 | > 7.23 |  |  |  | 7.00 to 9.00 | 
C=CC(=O)N1CCc2c(sc3ncnc(N[C@H](COCc4cccc([N+](=O)[O-])c4)c4ccccc4)c23)C1 [Compound 226] | 6.30 to 8.00 | > 7.23 |  |  |  | 7.00 to 9.00 | 
C=CC(=O)N1CCc2c(sc3ncnc(N[C@H](COCc4cccc(C)c4)c4ccccc4)c23)C1 [Compound 227] | 6.30 to 8.00 | > 7.23 |  |  |  | 7.00 to 9.00 | 
COc1cccc(COC[C@@H](Nc2ncnc3sc4c(c23)CCN(C(=O)/C=C/CN(C)C)C4)c2ccccc2)c1 [Compound 228] | 5.60 to 6.30 | > 7.23 |  |  |  | 7.00 to 9.00 | 
CN(C)C/C=C/C(=O)N1CCc2c(sc3ncnc(N[C@H](COCc4ccccc4F)c4ccccc4)c23)C1 [Compound 232] | 5.60 to 6.30 | > 7.23 |  |  |  | 7.00 to 9.00 | 
C=CC(=O)Nc1cccc(-c2c(-c3ccccc3)oc3ncnc(N[C@H](C)c4ccccc4)c23)c1 [Compound 239] | 5.60 to 6.30 |  |  |  |  | 7.00 to 9.00 | 6.05 to 7.00
CC#CC(=O)Nc1cccc(-c2c(-c3ccccc3)oc3ncnc(N[C@H](CO)c4ccccc4)c23)c1 [Compound 241] | 5.60 to 6.30 | > 7.23 |  |  |  | 7.00 to 9.00 | 

Continued, in another order:

pIC50 (GST-EGFR-KD^L858R/T790M) | pIC50 (GST-EGFR-KD^WT) | SMILES | tumor size relative to that of the vehicle controls (HCC827; 5 mg/kg daily IV) | tumor size relative to that of the vehicle controls (HCC827; 15 mg/kg daily IV) | tumor growth suppression (HCC827; 5 and 15 mg/kg IV, p<0.05) | pIC50 (HCC827 cells) | pIC50 (GST-EGFR-KD^WT; range given in mixed units)
6.30 to 8.00 | > 7.23 | CN(C)C/C=C/C(=O)N1CCc2c(sc3ncnc(N[C@H](CO)c4ccccc4)c23)C1 [Compound 62] | 39% | 23% | suppressed tumor growth significantly | 7.00 to 9.00 | 
5.60 to 6.30 | > 7.23 | O=C(/C=C/CN1CCOCC1)N1CCc2c(sc3ncnc(N[C@H](CO)c4ccccc4)c23)C1 [Compound 66] |  |  |  | 7.00 to 9.00 | 
5.60 to 6.30 | > 7.23 | CN1CCN(C/C=C/C(=O)N2CCc3c(sc4ncnc(N[C@H](CO)c5ccccc5)c34)C2)CC1 [Compound 67] |  |  |  | 7.00 to 9.00 | 
5.60 to 6.30 | > 7.23 | CCN(CC)C/C=C/C(=O)N1CCc2c(sc3ncnc(N[C@H](CO)c4ccccc4)c23)C1 [Compound 75] |  |  |  | 7.00 to 9.00 | 
6.30 to 8.00 | > 7.23 | C=CC(=O)N1CCc2c(sc3ncnc(N[C@H](CCO)c4ccccc4)c23)C1 [Compound 176] |  |  |  | 7.00 to 9.00 | 
5.60 to 6.30 | > 7.23 | C[C@@H](Nc1ncnc2sc3c(c12)CCN(C(=O)/C=C/CN(C)C)C3)c1ccccc1 [Compound 178] |  |  |  | 7.00 to 9.00 | 
5.60 to 6.30 |  | C=CC(=O)N1CCc2c(sc3ncnc(NC(CCO)c4ccccc4)c23)C1 (stereo not drawn) [Compound 188] |  |  |  | 6.00 to 6.52 | 6.05 to 7.00
5.60 to 6.30 | > 7.23 | CCN(CC)C/C=C/C(=O)N1CCc2c(sc3ncnc(N[C@H](C)c4ccccc4)c23)C1 [Compound 190] |  |  |  | 7.00 to 9.00 | 
5.60 to 6.30 | > 7.23 | CC[C@@H](Nc1ncnc2sc3c(c12)CCN(C(=O)/C=C/CN(CC)CC)C3)c1ccccc1 [Compound 191] |  |  |  | 7.00 to 9.00 | 
5.60 to 6.30 | > 7.23 | CN(C)C/C=C/C(=O)N1CCc2c(sc3ncnc(N[C@H](COCc4ccccc4)c4ccccc4)c23)C1 [Compound 198] |  |  |  | 7.00 to 9.00 | 
5.60 to 6.30 | > 7.23 | CN(C)C/C=C/C(=O)N1CCc2c(sc3ncnc(N[C@H](COCc4ccccn4)c4ccccc4)c23)C1 [Compound 203] |  |  |  | 7.00 to 9.00 | 
5.60 to 6.30 | > 7.23 | CNC/C=C/C(=O)N1CCc2c(sc3ncnc(N[C@H](C)c4ccccc4)c23)C1 [Compound 205] |  |  |  | 7.00 to 9.00 | 
